# In the SangsterLogP compilation:
row,Compound,logP
1,CCC=Cc1ccccc1[N+](=O)[O-],2.86
2,Clc1nc2c(Cl)c(Cl)c(Cl)c(Cl)c2[nH]1,4.53
3,O=[N+]([O-])c1ccc(Cl)cc1,2.39
4,O=C(/C=C/c1ccccc1)c1ccccc1,3.08
5,CCc1ccccc1OCC(=O)O,2.53
6,CSc1nnc(C(C)C)c(=O)n1N,1.01
7,Cc1ccc2cc(C)c(C)cc2c1,4.73
8,Fc1ccc(F)cc1,2.13
9,O=C(O)c1cccc(Br)c1,2.87
10,Cc1ccc(N(C)C)cc1,2.81
11,Oc1ccc(Cl)cc1Cl,3.06
12,C=C1C(=O)OC2CC(C)C3C=CC(=O)C3(C)C(O)C12 (centres undefined),0.87
13,COc1cccc(C(=O)O)c1,2.02
14,NC(=O)c1ccc(N)nc1,0.7
15,c1ccc2[nH]nnc2c1,1.44
16,CCC(C)C1(CC)C(=O)NC(=O)NC1=O (centres undefined),1.65
17,OCCCCCc1ccncc1,1.39
18,O=C(O)c1ccc(I)cc1,3.02
19,CCC(Cc1ccccn1)C(N)=O (centres undefined),-0.01
20,NCCCCc1ccccc1,2.4
21,O=C(O)c1cc([N+](=O)[O-])ccc1O,2.34
22,CCCCCCCC(C)=O,3.14
23,O=[N+]([O-])c1cccc2c1c([N+](=O)[O-])cc[n+]2[O-],0.95
24,Nc1ccc(S(=O)(=O)c2ccc(N)cc2)cc1,0.97
25,Cc1ccc(CO)cc1,1.58

row,Compound,logP
1,O=[N+]([O-])c1cccc2ccc[n+]([O-])c12,0.04
2,CN(C)CC/C=C1\c2ccccc2Sc2ccc(Cl)cc21,5.18
3,NC(N)=S,-1.08
4,O=C(O)CCCc1ccccc1,2.42
5,C=CCBr,1.79
6,CCOC(=O)Cc1ccccc1,2.28
7,C(=C\c1ccccc1)/c1ccccc1,4.81
8,NNC(=O)c1ccncc1,-0.7
9,CC1CCC(NC(=O)N(CCCl)N=O)CC1 (centres undefined),3.3
10,CCCCCN,1.49
11,C=CC,1.77
12,CCc1ccccn1,1.69
13,CN1C(=O)CC(=O)N(c2ccccc2)c2cc(Cl)ccc21,2.12
14,Clc1ccccc1Cl,3.43
15,CNC(=O)CNC(C)=O,-1.56
16,c1ccc(-c2ncc[nH]2)cc1,1.88
17,CCCN(CCC)N=O,1.36
18,COC1C(Cl)C(Cl)C(Cl)C(Cl)C1OC (centres undefined),2.82
19,Cc1cccc(C)c1,3.2
20,NC(=O)C1(N2CCCCC2)CCN(CCCC(=O)c2ccc(F)cc2)CC1,2.02
21,Brc1ccc2[nH]ccc2c1,3
22,O=C(CCCN1CCC(O)(c2ccc(Cl)cc2)CC1)c1ccc(F)cc1,3.36
23,Cc1ccnc(NS(=O)(=O)c2ccc(N)cc2)n1,0.14
24,O=[N+]([O-])c1cccc(Cl)c1,2.46
25,COC(=O)C(C#N)=NNc1cc(C(F)(F)F)ccc1[N+](=O)[O-],3.44

row,Compound,logP
1,CC(=O)S[C@@H]1CC2=CC(=O)CC[C@]2(C)[C@H]2CC[C@@]3(C)[C@@H](CC[C@@]34CCC(=O)O4)[C@H]12,2.78
2,c1ccoc1,1.34
3,COC1=CC(=O)C[C@@H](C)[C@]12Oc1c(Cl)c(OC)cc(OC)c1C2=O,2.18
4,OCCN1CCN(CCCN2c3ccccc3Sc3ccc(C(F)(F)F)cc32)CC1,4.36
5,Nc1ccc(C(=O)O)c([N+](=O)[O-])c1,0.38
6,CC(C)(C)NC[C@H](O)COc1ccccc1C1CCCC1,4.15
7,O=C(O)c1cccc(I)c1,3.13
8,Cc1ccc(C)c(O)c1,2.33
9,Cc1ccccc1OCC(=O)O,1.98
10,O=C(O)c1ccc(F)cc1,2.07
11,CC(C)(C)[N+](=O)[O-],1.17
12,C[C@]12C[C@H](O)[C@H]3[C@@H](CCC4=CC(=O)CC[C@@]43C)[C@@H]1CC[C@@H]2C(=O)CO,1.94
13,c1ccc2c(c1)ccc1c3ccccc3ccc21,5.81
14,COc1ccccc1OCC(=O)O,0.98
15,Cc1cn([C@H]2C[C@H](O)[C@@H](CO)O2)c(=O)[nH]c1=O,-0.93
16,Cc1cn([C@H]2CC[C@@H](CO)O2)c(=O)[nH]c1=O,-0.6
17,CCCNCCC,1.67
18,CC(=O)c1ccc(C)cc1,2.1
19,CCCCOC(=O)c1ccc(O)cc1,3.57
20,Nc1cc(N2CCCCC2)nc(N)[n+]1[O-],1.24
21,CCCCCC(=O)O,1.92
22,C1CN2CCC1CC2,1.38
23,O=C(O)COc1ccccc1Br,2.04
24,Nc1ccc(S(=O)(=O)Nc2ncccn2)cc1,-0.09
25,Cc1cccc(OCC(=O)O)c1,1.78

row,Compound,logP
1,c1ccsc1,1.81
2,Fc1ccccc1F,2.37
3,O=c1[nH]c2nc(O)nc(O)c2[nH]1,-2.17
4,Nc1ccc(C(=O)O)c(O)c1,0.89
5,CC1=CC(=O)c2ccccc2C1=O,2.2
6,C#C,0.37
7,OC[C@H]1O[C@@H](n2cnc3c(O)ncnc32)[C@H](O)[C@@H]1O,-2.1
8,C#C[C@]1(O)CC[C@H]2[C@@H]3CCc4cc(O)ccc4[C@H]3CC[C@@]21C,3.67
9,COc1ccccc1,2.11
10,Oc1ccnc(S)n1,-0.28
11,CCCC[N+](=O)[O-],1.47
12,OCC1OC(Oc2ccc(O)cc2)C(O)C(O)C1O (centres undefined),-1.35
13,CCCCOc1cc(C(=O)NCCN(CC)CC)c2ccccc2n1,4.4
14,CN1C(C(=O)Nc2ccccn2)=C(O)c2ccccc2S1(=O)=O,3.06
15,COC(=O)C(C#N)=NNc1cc(Cl)c(Cl)c(Cl)c1,5.22
16,Cc1ccc(CC(=O)O)cc1,1.86
17,O=[N+]([O-])c1cccc(O)c1,2
18,CCOC(C)=O,0.73
19,CN1CCN(C2=Nc3cc(Cl)ccc3Nc3ccccc32)CC1,3.23
20,ClC(Cl)(Cl)Cl,2.83
21,Cc1ccc2c(c1)c([N+](=O)[O-])cc[n+]2[O-],1.43
22,S=C1NCCN1,-0.66
23,O=C1C=C(Cl)C(=O)c2ccccc21,2.29
24,CN(C)C,0.16
25,O=[N+]([O-])c1cncn1CCN1CCOCC1,0.07

row,Compound,logP
1,Nc1ccc2cc3ccc(N)cc3nc2c1,1.83
2,CCc1ccc(OC(=O)NC)cc1,2.23
3,O=C(O)c1ccc(O)cc1O,1.63
4,Cc1cc(Cl)ccc1O,2.63
5,O=[N+]([O-])c1ccc2ccc[n+]([O-])c2c1,0.36
6,CC(=O)c1ccc(O)cc1,1.35
7,c1ncncn1,-0.73
8,CSc1ccccc1,2.74
9,O=Nc1ccc2ccccc2c1O,2.46
10,C=CCNCC,0.81
11,O=c1ccn([C@H]2CC[C@@H](CO)O2)c(=O)[nH]1,-1
12,NC12CC3CC(CC(C3)C1)C2,2.44
13,CCOC(=O)C1(c2ccccc2)CCN(C)CC1,2.72
14,Cc1cc(C)cc(O)c1,2.35
15,CSCC[C@H](N)C(=O)O,-1.87
16,COC(=O)C(C#N)=NNc1cc(Cl)c(Cl)cc1Cl,5.15
17,Cc1cccc(S(N)(=O)=O)c1,0.85
18,CCOC(=O)c1ccc(O)cc1,2.47
19,CO/N=C/c1ccccc1,2.53
20,COC(=O)C(C#N)=NNc1ccc(Cl)cc1C,4.3
21,CC[C@H](C)N,0.74
22,CN1CCc2cccc3c2C1Cc1ccc(O)c(O)c1-3 (centres undefined),2.3
23,Cc1cnc(NC(=O)C2=C(O)c3ccccc3S(=O)(=O)N2C)s1,3.43
24,Cn1cnc2c1c(=O)[nH]c(=O)n2C,-0.78
25,NCCc1ccc(O)c(O)c1,-0.98

row,Compound,logP
1,CC(C)N,0.26
2,C=C,1.13
3,c1ccc2c(c1)ccc1ccccc12,4.46
4,CC(=O)c1ccc(OCC(=O)O)cc1,0.87
5,CC(=O)Nc1ccc(OCC(O)CNC(C)C)cc1 (centres undefined),0.79
6,CCOC(=O)c1ccc(N)cc1,1.86
7,CCC(=O)c1ccccc1,2.19
8,CC(=O)Nc1ccccn1,0.61
9,CCOC(=O)C=Cc1ccccc1,2.99
10,NNc1ccccc1,1.25
11,O=[N+]([O-])c1ccc(O)c([N+](=O)[O-])c1,1.67
12,Nc1ccc(C(=O)O)cc1Br,1.4
13,[N-]=[N+]=N[C@H]1C[C@H](n2ccc(=O)[nH]c2=O)O[C@@H]1CO,-0.32
14,COc1ccc(CC(=O)O)cc1,1.42
15,NC(=O)c1cc([N+](=O)[O-])cc([N+](=O)[O-])c1,0.83
16,Cc1ccc(N=C=S)cc1,3.92
17,O=C(O)COc1ccccc1,1.34
18,CN1CCC(=C2c3ccccc3C=Cc3ccccc32)CC1,4.69
19,O=C(O)c1ccc(O)cc1,1.58
20,Cc1cccc(OCCN(C)C)c1,2.05
21,CCCC(C)(COC(N)=O)COC(N)=O,0.7
22,N#Cc1ccc(O)cc1,1.6
23,OCc1cccc(O)c1,0.49
24,Nc1ncnc2[nH]cnc12,-0.09
25,CCC1(CC)C(=O)NC(=S)NC1=O,1.5

row,Compound,logP
1,Nc1cccc(Cl)c1Cl,2.82
2,CC(C)C(=O)C(C#N)=NNc1cc(C(F)(F)F)ccc1Cl,5.31
3,CC(C(=O)O)c1ccc(-c2ccccc2)c(F)c1 (centres undefined),4.16
4,O=C(O)COc1ccc(F)cc1,1.64
5,NC(=O)CCCc1ccccn1,-0.09
6,O=C(O)c1ncccc1O,-1.27
7,COc1ccc2c3c1O[C@H]1[C@@H](O)C=C[C@H]4[C@@H](C2)N(C)CC[C@@]341,1.19
8,CC(=O)Nc1ccc(I)cc1,2.71
9,COc1ccc(NS(=O)(=O)c2ccc(N)cc2)cc1,1.51
10,COc1ccc(CC(C)N)cc1OC (centres undefined),1.2
11,NC(=O)Cc1ccccn1,-0.65
12,Clc1ccccn1,1.22
13,Brc1nc(Br)c(Br)[nH]1,1.96
14,CN(C)C(=O)c1ccccc1,0.62
15,CC(C)n1nnc2ccccc21,1.98
16,CCCCC1(CC)C(=O)NC(=O)NC1=O,1.73
17,Cc1ccccc1C,3.12
18,CC(=O)C(C#N)=NNc1ccc(SC(F)(F)F)cc1,5.04
19,O=C(O)COc1ccc(Cl)cc1Cl,2.81
20,c1ccnnc1,-0.72
21,NC(=O)c1ccccc1O,1.28
22,COc1ccc2c(c1)c(CC(=O)O)c(C)n2C(=O)c1ccc(Cl)cc1,4.27
23,COC(=O)c1cccnc1,0.83
24,CCOc1ccccc1O,1.68
